Source: US9828407B2, “Water soluble and activable phenolic derivatives with dermocosmetic and therapeutic applications and process for preparing said derivatives” (LIBRAGEN, priority 2006, dated 2017)
Values joined by “and” are separate entries in the source; they are usually repeats but may differ in a detail not shown here. Equal entries are not always repeated. Where two headings read alike, the source gives them in different places.

Legend:
Solubility in water = format: physicochemical; conditions: 25° C.
[1] = background statement; cited from earlier work
[2] = tested on: α-glucosidase (from Saccharomyces cerevisiae); test: Activation (hydrolysis) of Taxifolin glucoside by an α-glucosidase preparation; format: biochemical; conditions: 18 hours, 30° C., potassium phosphate buffer 0.1 M
Procedure: The reaction media were analysed by HPLC (method 2) after a 2-fold dilution of an aliquot with methanol.

Compound: O=C1c2c(O)cc(O)cc2OC(c2ccc(O)c(O)c2)C1O (centres unmarked) [Taxifolin, 3,5,7,3′,4′-pentahydroxyflavanone]
- solubility (Solubility in water): 1190 µg/mL and 3910 µM
- solubility in aqueous solution [1]: around 1 g/l

Compound: taxifolin O-α-glucoside [Taxifolin glucoside]
- conversion of Taxifolin glucoside in the presence of the α-glucosidase enzyme ([2]; pH 7.3): totally converted into Taxifolin
- stability of Taxifolin glucoside in the medium without α-glucosidase enzyme ([2]; pH 7.3, no enzyme): remained unchanged
- colour or odour changes on storage (4° C., 22° C., 37° C. and 45° C., 4 months): No colour or odour changes
- Measured quantity of taxifolin glucoside (in % of the initial quantity) (day 0, stored at +4° C.): 100%
- Measured quantity of taxifolin glucoside (in % of the initial quantity) (day 0, stored at +22° C.): 100%
- Measured quantity of taxifolin glucoside (in % of the initial quantity) (day 0, stored at +37° C.): 100%
- Measured quantity of taxifolin glucoside (in % of the initial quantity) (day 0, stored at +45° C.): 100%
- Measured quantity of taxifolin glucoside (in % of the initial quantity) (day 9, stored at +4° C.): 100%
- Measured quantity of taxifolin glucoside (in % of the initial quantity) (day 9, stored at +22° C.): 100%
- Measured quantity of taxifolin glucoside (in % of the initial quantity) (day 9, stored at +37° C.): 100%
- Measured quantity of taxifolin glucoside (in % of the initial quantity) (day 9, stored at +45° C.): 100%
- Measured quantity of taxifolin glucoside (in % of the initial quantity) (day 23, stored at +4° C.): 100%
- Measured quantity of taxifolin glucoside (in % of the initial quantity) (day 23, stored at +22° C.): 100%
- Measured quantity of taxifolin glucoside (in % of the initial quantity) (day 23, stored at +37° C.): 100%
- Measured quantity of taxifolin glucoside (in % of the initial quantity) (day 23, stored at +45° C.): 91%
- Measured quantity of taxifolin glucoside (in % of the initial quantity) (day 37, stored at +4° C.): 100%
- Measured quantity of taxifolin glucoside (in % of the initial quantity) (day 37, stored at +22° C.): 100%
- Measured quantity of taxifolin glucoside (in % of the initial quantity) (day 37, stored at +37° C.): 100%
- Measured quantity of taxifolin glucoside (in % of the initial quantity) (day 37, stored at +45° C.): 94%
- Measured quantity of taxifolin glucoside (in % of the initial quantity) (day 63, stored at +4° C.): 100%
- Measured quantity of taxifolin glucoside (in % of the initial quantity) (day 63, stored at +22° C.): 95%
- Measured quantity of taxifolin glucoside (in % of the initial quantity) (day 63, stored at +37° C.): 96%
- Measured quantity of taxifolin glucoside (in % of the initial quantity) (day 63, stored at +45° C.): 79%
- Measured quantity of taxifolin glucoside (in % of the initial quantity) (day 118, stored at +4° C.): 100%
- Measured quantity of taxifolin glucoside (in % of the initial quantity) (day 118, stored at +22° C.): 100%
- Measured quantity of taxifolin glucoside (in % of the initial quantity) (day 118, stored at +37° C.): 91%
- Measured quantity of taxifolin glucoside (in % of the initial quantity) (day 118, stored at +45° C.): 73%
